Test results published in US20250009743A1, “METHODS OF TREATING CANCERS USING STING AGONISTS” (Dana-Farber Cancer Institute, Inc., priority 2021, published 2025).

Legend:
[1] = test system: WT BMDMs and STING^−/− BMDMs; test: WT and STING^−/− BMDMs cultured in CM from ID8-Brca1^−/− cells; format: cell-based, mouse; conditions: CM of control or olaparib-treated ID8-Brca1^−/− cells; FIG. 21I
Protocol: For ex vivo culture of mouse macrophages, bone marrow cells were isolated from FVB/NJ mice and cultured in DMEM containing 10% FBS, 55 μM 2-Mercaptoethanol and 20 ng/ml M-CSF. BMDMs (bone marrow derived macrophages) were harvested on day 7 and further cultured in 2.0 ml control medium (90% DMEM, 10% FBS, 55 μM 2-Mercaptoethanol and 5 ng/ml M-CSF) described above or the medium containing 50% tumor cell conditioned medium for 72 hrs before analysis. For the tumor cell conditioned medium, about 3×10^5 tumor cells were cultured in 6-well plate for 24 hrs and then treated with DMSO or olaparib. After 24 hrs incubation with DMSO or olaparib, the tumor cells were washed twice with PBS and cultured in DMEM containing 10% FBS for 48 hrs. The tumor cell conditioned medium was collected by centrifugation at 1,500 g for 5 min at 4° C. to remove all the debris and cells. For the cytokine blocking experiment, monoclonal antibodies that specific to each cytokine were added to the tumor cell conditioned medium before it was applied to culture macrophages.

[2] = test system: ID8-Brca1^−/− tumor cells in WT and STING^−/− mice; test: Macrophages and myeloid DCs in WT and STING^−/− mice injected with ID8-Brca1^−/− tumor cells; format: in vivo, mouse; conditions: 24 h treatment; FIG. 21K, FIG. 22D
Protocol: Tumors were chopped and digested in collagenase buffer as described previously (Ding et al., 2018 Cell Rep 25, 2972-2980.e2975). Single cell suspensions of tumor and ascites were obtained by filtering through 70 um strainers and treated with 1× eBioscience RBC lysis buffer (Thermo Fisher) before staining. Single cells suspensions were incubated with LIVE/DEAD Fixable Aqua Dead Cell Stain (Life Technologies, Cat #L34965) for 30 min and then blocked with anti-CD16/32 (Biolegend, clone 93) for 20 min on ice. Samples were then incubated with appropriate antibodies for 30 min on ice. Foxp3 staining buffer set (eBioscience, Cat #00-5523-00) was applied for intracellular markers staining. For the intracellular cytokine analysis, cells were stimulated with Leukocyte Activation Cocktail (BD Biosciences, Cat #550583) at 37° C. for 4-6 hours prior to FACS staining. […] Flow cytometry was performed on an LSRII (BD Biosciences) or Fortessa HTS (BD Biosciences) at DFCI Flow Cytometry Core, and all the data were analyzed using FlowJo software.

PBM-R tumor cells = test: γ-H2AX flow cytometry in PBM-R cells; format: cell-based, mouse; conditions: 1 μM olaparib 24 hours
Protocol: Analysis of p-STAT3 and γ-H2AX (p-HA2X-Ser139) was performed according to a two-step protocol for intracellular phosphorylated signaling proteins (Thermo Fisher). Briefly, cells were incubated with LIVE/DEAD Fixable Aqua Dead Cell Stain for 30 min. After washing, cells were suspended in 100 μl PBS and then fixed by adding an equal volume of IC Fixation Buffer (CAT #00-822-49, Thermo Fisher) directly to cells and incubated at room temperature for 20 min followed by fixing with ice-cold 90% methanol in PBS for 30 min. The fixed cells were blocked and stained with p-STAT3 or γ-H2AX antibodies for flow cytometry analysis as described above.

Compound	M2-like TAM polarization of WT BMDMs [1]	myeloid DC activation and TAM repolarization in WT mice [2]	DNA damage (γ-H2AX) (PBM-R tumor cells; PBM-R3 cells)	DNA damage (γ-H2AX) (PBM-R tumor cells; PBM-R tumor cells)
COc1cc2cc(C(=O)CCC(=O)O)sc2cc1OC [MSA-2]	successfully reversed	successfully activated myeloid DCs and repolarized M2-like TAM to M1-like status	–	–
O=C(c1cc(Cc2n[nH]c(=O)c3ccccc23)ccc1F)N1CCN(C(=O)C2CC2)CC1 [olaparib]	–	–	a little DNA damage signaling	significantly increased DNA damage
